Results: patent US20230295152A1 (SENDA BIOSCIENCES, INC., priority 2019, published 2023)
≈ marks a conversion by molar mass, not a printed value. Where two headings read alike, the source gives them in different places.

Legend:
[1] = Hepatocyte Stability Assay, human; assay type: in vitro ADME; conditions: for CLint scaled at 1 μM: cryopreserved hepatocytes in suspension, human hepatocytes, read-out: Human hepatocyte clearance
Protocol: • Preparation of working solutions: 10 mM stock solutions of test compound and positive control were prepared in DMSO. In separate conical tubes, the 10 mM solution of test compound and the positive control were diluted to 100 μM by combining 198 μL of 50% acetonitrile/50% water and 2 μL of 10 mM stock.
Preparation of Hepatocytes: Incubation medium (William's E Medium supplemented with GlutaMAX) and hepatocyte thawing medium were placed in a 37° C. water bath and allowed warming for at least 15 minutes prior to use. A vial of cryopreserved hepatocytes was transferred from storage, ensuring that vials remained at cryogenic temperatures until thawing process ensued. Cells were thawed by placing the vial in a 37° C. water bath and gently shaking the vials for 2 minutes. After thawing was completed, vial was sprayed with 70% ethanol and transferred to a biosafety cabinet. Wide-bore pipette tip were used to transfer hepatocytes into 50 mL conical tube containing thawing medium. The 50 mL conical tube were placed into a centrifuge and spun at 100 g for 10 minutes. Upon completion of spin, thawing medium was aspirated and resuspended hepatocytes in enough incubation medium to yield ˜1.5×10^6 cells/mL. Using an AO/PI Staining, cells were counted and the viable cell density was determined. Cells with poor viability (<75% viability) were determined to be not acceptable for use. Cells were diluted with incubation medium to a working cell density of 0.5×10^6 viable cells/mL.
Procedure for Stability Determination: 198 μL of hepatocytes were pipetted into each wells of a 96-well non-coated plate. The plate was placed in the incubator to allow the hepatocytes to warm for 10 minutes. 2 μL of the 100 μM test compound or positive control solutions were pipetted into respective wells of the 96-well non-coated plate to start the reaction. The plate was returned to the incubator for the designed time points. Well contents was transferred in 25 μL aliquots at time points of 0, 15, 30, 60, 90 and 120 minutes. The aliquots were then mixed with 6 volumes (150 μL) of acetonitrile containing internal standard, IS (100 nM alprazolam, 200 nM caffeine and 100 nM tolbutamide) to terminate the reaction. The mixture was vortex for 5 minutes. Samples were centrifuged for 45 minutes at 3,220 g. An aliquot of 100 μL of the supernatant was diluted by 100 μL ultra-pure water, and the mixture was used for LC/MS/MS analysis. All incubations were performed in duplicate.
Data Analysis: All calculations were carried out using Microsoft Excel. Peak areas were determined from extracted ion chromatograms. In vitro half-life (t1/2) of parent compound was determined by regression analysis of the percent parent disappearance vs. time curve.
The in vitro half-life (in vitro t1/2) was determined from the slope value:
Conversion of the in vitro t1/2 (in min) into the in vitro intrinsic clearance (in vitro CLint, in μL/min/1×10^6 cells) was done using the following equation (mean of duplicate determinations):
V=incubation volume(0.2 mL);
N=number of hepatocytes per well(0.1×10^6 cells).
“+++” indicates a CLint value less than 20 mL/min/Kg, “++” indicates a CLint between 20 and 50 mL/min/Kg, and “+” indicates an CLint above 50 mL/min/Kg.

[2] = Solubility Determination Assay in PBS pH 1.6 and pH 7.4; assay type: physicochemical; conditions: PBS buffer, aqueous buffer, kinetic from dmso stock
Protocol: The stock solutions of test compounds and control compound progesterone were prepared in DMSO at the concentrations of 10 mM. 15 μL of stock solution (10 mM) of each sample was placed in order into their proper 96-well rack. 485 μL of PBS pH 1.6 and pH 7.4 were added into each vial of the cap-less Solubility Sample plate. The assay was performed in singlet. One stir stick was added to each vial and then the vial was sealed using a molded PTFE/Silicone plug. […] After completion of the 2 hours, plugs were removed and the stir sticks were removed using a big magnet. The samples from the Solubility Sample plate were transferred into the filter plate. Using the Vacuum Manifold, all the samples were filtered. An aliquot of 5 μL was taken from the filtrate followed by addition of 495 μL of a mixture of H2O and acetonitrile containing internal standard (1:1). A certain proportion of ultrapure water was used to dilute the diluent according to the peak shape. The dilution factor was changed according to the solubility values and the LC-MS signal response.
From the 10 mM DMSO STD plate, 6 μL was transferred into the remaining empty plate, and then 194 μL of DMSO were added to that plate to have a STD concentration of 300 μM. From the 300 μM DMSO STD plate, 5 μL were transferred into the remaining empty plate, and then 495 μL of a mixture of H2O and acetonitrile containing internal standard (1:1) were added to that plate to have a final STD concentration of 3 μM. A certain proportion of ultrapure water was used to dilute the diluent according to the peak shape. The concentrations of the standard samples were changed according to the LC-MS signal response.
The plate was placed into the well plate autosampler. The samples were evaluated by LC-MS/MS analysis.
All calculations were carried out using Microsoft Excel.
The filtrate was analyzed and quantified against a standard of known concentration using LC coupled with mass spectral peak identification and quantitation. Solubility values of the test compound and control compound were calculated as follows: […]
Any value of the compounds that was not within the specified limits was rejected and the experiment was repeated.
“+++” indicates a solubility value equal to or greater than 1 μM, “++” indicates a solubility value between 0.1 and 1 μM, and “+” indicates a solubility value less than 0.1 μM.

[3] = PBS pH 1.6, 25° C., read-out: Aq. Solubility at pH = 1.6
[4] = PBS pH 7.4, 25° C., read-out: Aq. Solubility at pH = 7.4

| CLint scaled at 1 μM [1] | solubility at 2 h [2, 3] | solubility at 2 h [2, 4] | SMILES | Human hepatocyte intrinsic clearance, suspension Hheps ClInt (% Qh) ([1]; suspension human hepatocytes) |
| --- | --- | --- | --- | --- |
| < 20 mL/min/kg | 0.1 to 1 µM (≈ 0.0444 to 0.444 µg/mL) | < 0.1 µM | Cn1cc(-c2nc(-c3ccc(C(F)(F)F)cn3)cc3c(=O)n(CC(C)(C)O)cnc23)cn1 [Compound 103, 3-(2-hydroxy-2-methylpropyl)-8-(1-methyl-1H-pyrazol-4-yl)-6-(5-(trifluoromethyl)pyridin-2-yl)pyrido[3,4-d]pyrimidin-4(3H)-one] | – |
| < 20 mL/min/kg | 0.1 to 1 µM (≈ 0.0445 to 0.445 µg/mL) | < 0.1 µM | C[C@@H](CO)n1cnc2c(-c3cnn(C)c3)nc(-c3ccc(OC(F)(F)F)cc3)cc2c1=O [Compound 25] | – |
| < 20 mL/min/kg | ≥ 1 µM | ≥ 1 µM | CC(C)(O)Cn1cnc2c(-c3cccnc3)nc(-c3ccc(C(F)(F)F)cc3)cc2c1=O [Compound 16] | – |
| < 20 mL/min/kg | < 0.1 µM | < 0.1 µM | C[C@@H](CO)n1cnc2c(-c3cnsc3)nc(-c3ccc(Cl)cc3)cc2c1=O [Compound 58] | – |
| < 20 mL/min/kg | 0.1 to 1 µM (≈ 0.0458 to 0.458 µg/mL) | 0.1 to 1 µM (≈ 0.0458 to 0.458 µg/mL) | Cn1cc(-c2nc(-c3ccc(C(F)(F)F)cn3)cc3c(=O)n([C@H]4COC[C@H]4O)cnc23)cn1 [Compound 151, 3-((3S,4S)-4-hydroxytetrahydrofuran-3-yl)-8-(1-methyl-1H-pyrazol-4-yl)-6-(5-(trifluoromethyl)pyridin-2-yl)pyrido[3,4-d]pyrimidin-4(3H)-one] | – |
| < 20 mL/min/kg | – | 0.1 to 1 µM (≈ 0.0431 to 0.431 µg/mL) | C[C@@H](CO)n1cnc2c(-n3ccnc3)nc(-c3ccc(OC(F)(F)F)cc3)cc2c1=O [Compound 44, (S)-3-(1-hydroxypropan-2-yl)-8-(1H-imidazol-1-yl)-6-(4-(trifluoromethoxy)-phenyl)pyrido[3,4-d]pyrimidin-4(3H)-one] | – |
| < 20 mL/min/kg | ≥ 1 µM | 0.1 to 1 µM (≈ 0.0458 to 0.458 µg/mL) | Cn1cc(-c2nc(-c3ccc(C(F)(F)F)nc3)cc3c(=O)n([C@H]4COC[C@H]4O)cnc23)cn1 [Compound 88] | – |
| < 20 mL/min/kg | 0.1 to 1 µM (≈ 0.0458 to 0.458 µg/mL) | 0.1 to 1 µM (≈ 0.0458 to 0.458 µg/mL) | Cn1cc(-c2nc(-c3ccc(C(F)(F)F)nc3)cc3c(=O)n([C@H]4COC[C@@H]4O)cnc23)cn1 [Compound 114, 3-((3S,4R)-4-hydroxytetrahydrofuran-3-yl)-8-(1-methyl-1H-pyrazol-4-yl)-6-(6-(trifluoromethyl)pyridin-3-yl)pyrido[3,4-d]pyrimidin-4(3H)-one] | – |
| < 20 mL/min/kg | 0.1 to 1 µM (≈ 0.043 to 0.43 µg/mL) | 0.1 to 1 µM (≈ 0.043 to 0.43 µg/mL) | C[C@H](O)Cn1cnc2c(-c3cnn(C)c3)nc(-c3ccc(C(F)(F)F)cn3)cc2c1=O [Compound 142, (S)-3-(2-hydroxypropyl)-8-(1-methyl-1H-pyrazol-4-yl)-6-(5-(trifluoromethyl)pyridin-2-yl)pyrido[3,4-d]pyrimidin-4(3H)-one] | – |
| 20 to 50 mL/min/kg | ≥ 1 µM | ≥ 1 µM | C[C@@H](CO)n1cnc2c(-c3cccnc3)nc(-c3cnc(C4CC4)s3)cc2c1=O [Compound 66] | – |
| < 20 mL/min/kg | ≥ 1 µM | ≥ 1 µM | O=c1c2cc(-c3ccc(C(F)(F)F)cn3)nc(-c3cccnc3)c2ncn1C[C@@H](O)C(F)(F)F [Compound 154, (R)-8-(pyridin-3-yl)-3-(3,3,3-trifluoro-2-hydroxypropyl)-6-(5-(trifluoromethyl)pyridin-2-yl)pyrido[3,4-d]pyrimidin-4(3H)-one] | – |
| < 20 mL/min/kg | < 0.1 µM | < 0.1 µM | Cn1cc(-c2nc(-c3ccc(C(F)(F)F)nc3)cc3c(=O)n(C[C@@H](O)C(F)(F)F)cnc23)cn1 [Compound 110, (R)-8-(1-methyl-1H-pyrazol-4-yl)-3-(3,3,3-trifluoro-2-hydroxypropyl)-6-(6-(trifluoromethyl)pyridin-3-yl)pyrido[3,4-d]pyrimidin-4(3H)-one] | – |
| < 20 mL/min/kg | ≥ 1 µM | ≥ 1 µM | O=c1c2cc(-c3ccc(C(F)(F)F)nc3)nc(-c3cccnc3)c2ncn1[C@H]1COC[C@@H]1O [Compound 117] | – |
| < 20 mL/min/kg | ≥ 1 µM | ≥ 1 µM | C[C@@H](CO)n1cnc2c(-c3cnn(C)c3)nc(-c3cnc(C(F)(F)F)nc3)cc2c1=O [Compound 95] | – |
| 20 to 50 mL/min/kg | ≥ 1 µM | ≥ 1 µM | C[C@@H](CO)n1cnc2c(-c3cccnc3)nc(-c3ccc(OC(F)(F)F)nc3)cc2c1=O [Compound 50] | – |
| < 20 mL/min/kg | ≥ 1 µM | ≥ 1 µM | O=c1c2cc(-c3ccc(C(F)(F)F)nc3)nc(-c3cccnc3)c2ncn1C[C@H](O)C(F)(F)F [Compound 57] | – |
| < 20 mL/min/kg | ≥ 1 µM | ≥ 1 µM | C[C@@H](CO)n1cnc2c(-c3cccnc3)nc(-c3cnc(C(F)(F)F)s3)cc2c1=O [Compound 85] | – |
| < 20 mL/min/kg | 0.1 to 1 µM (≈ 0.0433 to 0.433 µg/mL) | 0.1 to 1 µM (≈ 0.0433 to 0.433 µg/mL) | C[C@@H](CO)n1cnc2c(-c3cnsc3)nc(-c3ccc(C(F)(F)F)cn3)cc2c1=O [Compound 102, (S)-3-(1-hydroxypropan-2-y1)-8-(isothiazol-4-yl)-6-(5-(trifluoromethyl)pyridin-2-yl)pyrido[3,4-d]pyrimidin-4(3H)-one] | – |
| < 20 mL/min/kg | ≥ 1 µM | 0.1 to 1 µM (≈ 0.0455 to 0.455 µg/mL) | O=c1c2cc(-c3ccc(C(F)(F)F)cn3)nc(-c3cccnc3)c2ncn1[C@H]1COC[C@H]1O [Compound 145, 3-((3S,4S)-4-hydroxytetrahydrofuran-3-yl)-8-(pyridin-3-yl)-6-(5-(trifluoromethyl)pyridin-2-yl)pyrido[3,4-d]pyrimidin-4(3H)-one] | – |
| < 20 mL/min/kg | ≥ 1 µM | ≥ 1 µM | Cn1cc(-c2nc(-c3ccc(C4CC4)nc3)cc3c(=O)n(CC(C)(C)O)cnc23)cn1 [Compound 82] | – |

| SMILES | CLint scaled at 1 μM [1] | solubility at 2 h [2, 3] | solubility at 2 h [2, 4] | Human hepatocyte intrinsic clearance, suspension Hheps ClInt (% Qh) ([1]; suspension human hepatocytes) |
| --- | --- | --- | --- | --- |
| C[C@@H](CO)n1cnc2c(-c3cccnc3)nc(-c3ccc(C(F)(F)F)cn3)cc2c1=O [Compound 46, (S)-3-(1-hydroxypropan-2-yl)-8-(pyridin-3-yl)-6-(5-(trifluoromethyl)pyridin-2-yl)pyrido[3,4-d]pyrimidin-4(3H)-one] | < 20 mL/min/kg | ≥ 1 µM | ≥ 1 µM | <31 % Qh |
| O=c1c2cc(-c3ccc(Cl)cc3)nc(-c3cccnc3)c2ncn1[C@@H]1COC[C@@H]1O (stereo in doubt) [Compound 71] | < 20 mL/min/kg | ≥ 1 µM | ≥ 1 µM | – |
